Source: patent publication EP4467141A1, “PYRAZOLO-QUINOLINES AS SELECTIVE INHIBITORS OF GENOTOXIC STRESS-INDUCED IKK/NF- KB PATHWAYS FOR CANCER THERAPY” (Max-Delbrück-Centrum für Molekulare Medizin in der …, priority 2023, dated 2024)

Experiments:
Test in all cases: Kinase panel study
Type in all cases: biochemical
Settings in all cases: read-out: Percentage of inhibition; for inhibition at 1 µM: 1000nM; for inhibition at 10 µM: 10000nM
[1] = target: T1, PRKCE (PKC epsilon) (Homo sapiens, UniProt Q02156)
T1 construct: purchased Thermo Fisher Scientific
T1 sequence (Q02156 1-737): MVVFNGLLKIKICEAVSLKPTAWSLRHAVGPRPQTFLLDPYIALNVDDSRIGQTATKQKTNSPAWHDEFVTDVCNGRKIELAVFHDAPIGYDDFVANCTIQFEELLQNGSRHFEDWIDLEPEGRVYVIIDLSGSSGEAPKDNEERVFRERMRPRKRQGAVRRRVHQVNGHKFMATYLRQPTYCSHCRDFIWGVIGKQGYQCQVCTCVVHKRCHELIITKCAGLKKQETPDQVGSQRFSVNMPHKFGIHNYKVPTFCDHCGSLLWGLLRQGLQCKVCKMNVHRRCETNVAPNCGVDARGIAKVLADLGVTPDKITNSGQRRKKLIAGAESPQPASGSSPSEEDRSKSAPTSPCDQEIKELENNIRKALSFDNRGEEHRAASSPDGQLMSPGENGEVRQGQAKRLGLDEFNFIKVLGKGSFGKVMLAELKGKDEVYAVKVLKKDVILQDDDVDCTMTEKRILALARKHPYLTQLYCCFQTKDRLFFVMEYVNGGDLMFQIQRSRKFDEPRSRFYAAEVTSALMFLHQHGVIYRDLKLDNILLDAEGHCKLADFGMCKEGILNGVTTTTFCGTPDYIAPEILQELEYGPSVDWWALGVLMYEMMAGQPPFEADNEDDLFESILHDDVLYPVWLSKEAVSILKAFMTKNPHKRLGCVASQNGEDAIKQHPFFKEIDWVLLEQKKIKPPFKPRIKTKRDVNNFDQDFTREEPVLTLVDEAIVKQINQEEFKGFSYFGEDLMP
Summary of the method: (§1)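 Lead compounds and derivatives were profiled by ZLyte or Adapta in vitro kinase assays. Each value reports inhibition percentage at one of two concentrations, 1 µM or 10 µM.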

[2] = target: T2, PIK3C3 (hVPS34) (Homo sapiens, UniProt Q8NEB9)
T2 construct: purchased Thermo Fisher Scientific
T2 sequence (Q8NEB9 whole entry): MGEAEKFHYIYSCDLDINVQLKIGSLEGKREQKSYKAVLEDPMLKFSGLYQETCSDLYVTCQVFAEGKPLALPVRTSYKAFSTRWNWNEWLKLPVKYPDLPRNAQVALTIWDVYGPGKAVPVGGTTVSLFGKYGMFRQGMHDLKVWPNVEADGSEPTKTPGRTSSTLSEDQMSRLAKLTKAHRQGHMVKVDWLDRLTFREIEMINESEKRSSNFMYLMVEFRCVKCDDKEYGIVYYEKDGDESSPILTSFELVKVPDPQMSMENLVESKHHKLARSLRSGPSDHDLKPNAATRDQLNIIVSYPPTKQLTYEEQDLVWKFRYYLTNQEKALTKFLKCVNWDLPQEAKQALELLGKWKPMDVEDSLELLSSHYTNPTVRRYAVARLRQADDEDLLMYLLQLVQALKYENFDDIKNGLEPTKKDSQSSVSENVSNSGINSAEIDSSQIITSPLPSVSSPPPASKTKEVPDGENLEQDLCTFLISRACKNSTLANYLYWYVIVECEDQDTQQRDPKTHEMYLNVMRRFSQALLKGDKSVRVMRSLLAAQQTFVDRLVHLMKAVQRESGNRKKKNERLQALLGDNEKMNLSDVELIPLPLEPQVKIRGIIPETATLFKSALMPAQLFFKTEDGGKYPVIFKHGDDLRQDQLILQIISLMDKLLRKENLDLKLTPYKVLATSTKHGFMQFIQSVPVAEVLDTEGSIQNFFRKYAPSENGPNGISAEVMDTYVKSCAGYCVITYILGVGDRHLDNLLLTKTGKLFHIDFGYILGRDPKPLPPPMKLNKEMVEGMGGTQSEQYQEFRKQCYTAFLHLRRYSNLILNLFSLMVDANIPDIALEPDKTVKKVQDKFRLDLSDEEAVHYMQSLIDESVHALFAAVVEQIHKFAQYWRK
Summary of the method: as §1

[3] = target: T3, SRC (Homo sapiens, UniProt P12931)
T3 construct: purchased Thermo Fisher Scientific
Summary of the method: as §1

[4] = target: T4, TBK1 (Homo sapiens, UniProt Q9UHD2)
T4 construct: purchased Thermo Fisher Scientific
T4 sequence (Q9UHD2 1-729): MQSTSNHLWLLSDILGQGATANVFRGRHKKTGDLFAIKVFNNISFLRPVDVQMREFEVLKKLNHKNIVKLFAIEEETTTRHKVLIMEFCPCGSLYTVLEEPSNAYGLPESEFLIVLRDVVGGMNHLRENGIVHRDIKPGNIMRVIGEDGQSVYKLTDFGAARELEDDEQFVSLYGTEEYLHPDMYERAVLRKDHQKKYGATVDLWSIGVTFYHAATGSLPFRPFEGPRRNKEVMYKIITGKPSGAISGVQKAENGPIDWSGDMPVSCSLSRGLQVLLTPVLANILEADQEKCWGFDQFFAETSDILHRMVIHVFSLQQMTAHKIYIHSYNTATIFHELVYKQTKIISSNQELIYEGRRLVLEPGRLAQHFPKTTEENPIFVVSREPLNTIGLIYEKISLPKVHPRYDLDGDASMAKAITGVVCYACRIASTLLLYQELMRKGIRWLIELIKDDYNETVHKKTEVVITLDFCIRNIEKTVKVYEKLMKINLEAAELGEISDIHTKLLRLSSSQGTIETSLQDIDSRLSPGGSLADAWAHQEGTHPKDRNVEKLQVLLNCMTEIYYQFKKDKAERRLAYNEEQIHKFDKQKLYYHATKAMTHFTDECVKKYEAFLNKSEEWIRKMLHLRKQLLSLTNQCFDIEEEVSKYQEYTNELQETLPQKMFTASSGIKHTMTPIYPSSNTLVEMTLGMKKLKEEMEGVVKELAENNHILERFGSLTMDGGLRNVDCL
Summary of the method: as §1

[5] = target: T5, ABL1 E255K (Homo sapiens, UniProt P00519, E255K)
T5 construct: purchased Thermo Fisher Scientific
T5 sequence (P00519 whole entry E255K): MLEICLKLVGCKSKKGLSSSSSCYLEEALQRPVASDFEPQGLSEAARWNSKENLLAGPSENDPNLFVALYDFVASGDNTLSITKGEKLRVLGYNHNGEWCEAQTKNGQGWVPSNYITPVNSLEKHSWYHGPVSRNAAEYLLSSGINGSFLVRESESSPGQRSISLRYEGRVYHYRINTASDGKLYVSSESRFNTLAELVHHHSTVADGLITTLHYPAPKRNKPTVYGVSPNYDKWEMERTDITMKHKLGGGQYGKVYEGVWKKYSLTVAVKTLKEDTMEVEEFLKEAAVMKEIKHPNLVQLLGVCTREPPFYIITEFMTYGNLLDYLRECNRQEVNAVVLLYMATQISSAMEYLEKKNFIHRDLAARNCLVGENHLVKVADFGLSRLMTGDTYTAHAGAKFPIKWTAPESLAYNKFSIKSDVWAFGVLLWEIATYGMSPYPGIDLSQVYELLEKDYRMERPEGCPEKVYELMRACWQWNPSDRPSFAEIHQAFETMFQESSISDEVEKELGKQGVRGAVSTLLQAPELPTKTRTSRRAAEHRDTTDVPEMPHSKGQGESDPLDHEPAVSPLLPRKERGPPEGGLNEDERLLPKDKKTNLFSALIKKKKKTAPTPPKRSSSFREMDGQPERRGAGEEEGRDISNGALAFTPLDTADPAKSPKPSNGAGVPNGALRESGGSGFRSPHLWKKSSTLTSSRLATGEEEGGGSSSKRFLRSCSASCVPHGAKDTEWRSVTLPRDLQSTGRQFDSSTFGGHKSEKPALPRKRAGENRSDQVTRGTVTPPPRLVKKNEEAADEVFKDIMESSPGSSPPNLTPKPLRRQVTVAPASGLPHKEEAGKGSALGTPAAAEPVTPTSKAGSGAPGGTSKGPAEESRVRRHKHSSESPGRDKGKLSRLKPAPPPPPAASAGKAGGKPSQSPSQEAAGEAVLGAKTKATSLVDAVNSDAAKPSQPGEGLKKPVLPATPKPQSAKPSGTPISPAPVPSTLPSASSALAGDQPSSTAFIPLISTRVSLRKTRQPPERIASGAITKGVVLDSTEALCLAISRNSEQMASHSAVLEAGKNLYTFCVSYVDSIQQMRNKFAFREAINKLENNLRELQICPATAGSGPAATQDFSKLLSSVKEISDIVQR
Summary of the method: as §1

[6] = target: T6, PAK7 (KIAA1264) (Homo sapiens, UniProt Q9P286)
T6 construct: purchased Thermo Fisher Scientific
T6 sequence (Q9P286 whole entry): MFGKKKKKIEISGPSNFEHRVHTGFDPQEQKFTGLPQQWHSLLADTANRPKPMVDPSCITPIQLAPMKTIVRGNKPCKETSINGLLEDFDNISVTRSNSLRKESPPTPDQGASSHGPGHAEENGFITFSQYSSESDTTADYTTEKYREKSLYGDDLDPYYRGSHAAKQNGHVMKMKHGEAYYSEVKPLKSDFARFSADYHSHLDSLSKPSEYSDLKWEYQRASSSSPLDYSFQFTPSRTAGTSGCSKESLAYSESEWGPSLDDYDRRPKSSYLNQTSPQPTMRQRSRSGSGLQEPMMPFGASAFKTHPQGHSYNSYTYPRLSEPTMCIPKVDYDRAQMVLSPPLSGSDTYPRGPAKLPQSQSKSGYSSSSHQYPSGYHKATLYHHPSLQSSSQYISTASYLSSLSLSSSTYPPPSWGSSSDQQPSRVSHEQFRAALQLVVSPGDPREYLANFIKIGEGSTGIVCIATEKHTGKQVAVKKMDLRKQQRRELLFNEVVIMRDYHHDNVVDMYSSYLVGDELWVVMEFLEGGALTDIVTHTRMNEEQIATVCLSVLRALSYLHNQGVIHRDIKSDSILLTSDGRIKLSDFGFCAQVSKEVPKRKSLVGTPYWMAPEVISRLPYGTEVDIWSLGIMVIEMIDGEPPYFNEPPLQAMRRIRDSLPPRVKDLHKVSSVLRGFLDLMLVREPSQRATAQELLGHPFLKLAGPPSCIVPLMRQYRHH
Summary of the method: as §1

[7] = target: T7, CSNK1A1 (CK1 alpha 1) (Homo sapiens, UniProt P48729)
T7 construct: purchased Thermo Fisher Scientific
Summary of the method: as §1

[8] = target: T8, FGFR2 N549H (Homo sapiens, UniProt P21802, N549H)
T8 construct: purchased Thermo Fisher Scientific
T8 sequence (P21802 22-821 N549H): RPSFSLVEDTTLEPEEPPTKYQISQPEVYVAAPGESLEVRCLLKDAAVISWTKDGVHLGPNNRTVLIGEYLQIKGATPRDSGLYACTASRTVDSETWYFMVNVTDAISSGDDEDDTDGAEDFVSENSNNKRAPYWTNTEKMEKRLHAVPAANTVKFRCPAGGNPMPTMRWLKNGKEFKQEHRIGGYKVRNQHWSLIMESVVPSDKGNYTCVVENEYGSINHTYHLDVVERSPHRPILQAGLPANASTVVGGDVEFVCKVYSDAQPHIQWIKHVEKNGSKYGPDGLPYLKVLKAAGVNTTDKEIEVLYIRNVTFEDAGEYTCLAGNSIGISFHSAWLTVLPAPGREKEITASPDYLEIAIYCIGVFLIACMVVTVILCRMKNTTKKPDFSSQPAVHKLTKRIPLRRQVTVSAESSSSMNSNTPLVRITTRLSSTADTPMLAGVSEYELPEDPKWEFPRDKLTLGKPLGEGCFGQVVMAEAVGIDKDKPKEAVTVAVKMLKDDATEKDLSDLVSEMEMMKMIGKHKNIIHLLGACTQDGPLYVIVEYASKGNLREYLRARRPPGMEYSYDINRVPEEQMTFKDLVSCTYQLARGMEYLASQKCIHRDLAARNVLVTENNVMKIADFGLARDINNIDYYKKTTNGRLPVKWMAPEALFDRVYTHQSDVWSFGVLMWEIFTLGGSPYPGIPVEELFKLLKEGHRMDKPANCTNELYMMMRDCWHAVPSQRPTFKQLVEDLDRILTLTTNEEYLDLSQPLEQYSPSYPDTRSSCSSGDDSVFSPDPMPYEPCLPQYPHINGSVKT
Summary of the method: as §1

[9] = target: T9, MST1R (RON) (Homo sapiens, UniProt Q04912)
T9 construct: purchased Thermo Fisher Scientific
T9 sequence (Q04912 25-1400): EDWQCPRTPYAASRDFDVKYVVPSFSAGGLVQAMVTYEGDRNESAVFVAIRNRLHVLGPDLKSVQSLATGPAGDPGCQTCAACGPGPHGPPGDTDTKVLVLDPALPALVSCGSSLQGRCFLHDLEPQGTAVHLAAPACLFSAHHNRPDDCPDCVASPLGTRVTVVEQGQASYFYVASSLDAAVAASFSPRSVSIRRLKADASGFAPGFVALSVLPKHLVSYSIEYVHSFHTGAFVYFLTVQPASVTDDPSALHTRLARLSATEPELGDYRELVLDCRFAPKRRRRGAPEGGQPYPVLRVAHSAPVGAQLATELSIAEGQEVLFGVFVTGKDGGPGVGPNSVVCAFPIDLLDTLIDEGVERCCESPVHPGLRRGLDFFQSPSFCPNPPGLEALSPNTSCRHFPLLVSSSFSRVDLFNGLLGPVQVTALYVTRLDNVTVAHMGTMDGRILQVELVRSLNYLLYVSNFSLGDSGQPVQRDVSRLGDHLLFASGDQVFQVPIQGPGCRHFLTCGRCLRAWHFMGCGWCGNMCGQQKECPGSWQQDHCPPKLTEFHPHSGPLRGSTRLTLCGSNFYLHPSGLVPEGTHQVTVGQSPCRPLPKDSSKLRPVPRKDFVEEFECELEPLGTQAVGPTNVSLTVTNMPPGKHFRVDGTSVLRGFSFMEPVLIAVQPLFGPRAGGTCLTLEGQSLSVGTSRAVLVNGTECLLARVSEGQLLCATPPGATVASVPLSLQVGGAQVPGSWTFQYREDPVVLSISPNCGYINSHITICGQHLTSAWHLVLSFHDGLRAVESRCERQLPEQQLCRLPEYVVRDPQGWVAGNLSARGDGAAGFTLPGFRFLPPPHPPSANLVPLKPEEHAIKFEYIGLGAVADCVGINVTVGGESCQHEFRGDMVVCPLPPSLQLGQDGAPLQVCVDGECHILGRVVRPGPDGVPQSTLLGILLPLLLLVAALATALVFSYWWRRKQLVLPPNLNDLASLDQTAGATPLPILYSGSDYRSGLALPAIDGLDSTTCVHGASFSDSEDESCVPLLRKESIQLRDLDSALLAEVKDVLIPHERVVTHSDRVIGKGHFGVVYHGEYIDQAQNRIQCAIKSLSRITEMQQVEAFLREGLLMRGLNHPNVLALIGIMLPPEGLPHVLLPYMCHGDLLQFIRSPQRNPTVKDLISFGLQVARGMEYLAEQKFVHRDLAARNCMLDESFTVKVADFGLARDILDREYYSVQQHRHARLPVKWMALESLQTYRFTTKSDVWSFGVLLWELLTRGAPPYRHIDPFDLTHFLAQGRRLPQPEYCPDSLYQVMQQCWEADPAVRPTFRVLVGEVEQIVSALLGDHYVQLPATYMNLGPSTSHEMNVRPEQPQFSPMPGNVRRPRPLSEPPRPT
Summary of the method: as §1

SMILES | inhibition at 1 µM [1] [%] | inhibition at 10 µM [1] [%] | inhibition at 1 µM [2] [%] | inhibition at 10 µM [2] [%] | inhibition at 1 µM [3] [%] | inhibition at 10 µM [3] [%] | inhibition at 1 µM [4] [%] | inhibition at 10 µM [4] [%] | inhibition at 1 µM [5] [%] | inhibition at 10 µM [5] [%] | inhibition at 1 µM [6] [%] | inhibition at 10 µM [6] [%] | inhibition at 1 µM [7] [%] | inhibition at 10 µM [7] [%] | inhibition at 1 µM [8] [%] | inhibition at 10 µM [8] [%] | inhibition at 1 µM [9] [%] | inhibition at 10 µM [9] [%]
COc1ccc2c(c1OC)c(=O)n1c3ccc(O)cc3c3ccnc2c31 [MW01, 5-Hydroxy-10,11-dimethoxy-9H-benzo[c]indolo[3,2,1-ij][1,5]naphthyridin-9-one] | 9 | 8 | 23 | 49 | 0 | 16 | 8 | 17 | 7 | 11 | 2 | 11 | 5 | 17 | 0 | 13 | 22 | 39
COc1ccc2cc3c(N)nn(C(=O)c4cccc(N(C)C)c4)c3nc2c1 [MW05, (3-Amino-7-methoxypyrazolo[3,4-b]quinolin-1-yl)-[3-(dimethylamino)phenyl]methanone] | 6 | -12 | 4 | 4 | 6 | 3 | 11 | -8 | 6 | 5 | 15 | 13 | 2 | 1 | -4 | -22 | -1 | -16
